SMILES strings stand for the structures. Where a name gives a salt, the structure may show the parent alone.

Experimental findings from the supplement of paper PMC12137928 are described below.

The test system of this test is HCT116. The following applies: 72 h. The essentials:
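HCT116 cells were seeded at 250 per well in 1536-well plates with 5 h allowed for attachment. CellTiter-Glo luminescence was normalized against vehicle (0%) and positive control (-100%) before pattern correction. The IC50 and maximal efficacy figures derive from four-parameter Hill fits.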

Turning to `N#C[C@@H]1C[C@@H]2C[C@@H]2N1C(=O)[C@@H](N)C12CC3CC(CC(O)(C3)C1)C2` [Saxagliptin], the IC50 cell viability by setting is: (ICRF193 0 nM) above 45.8 µM; (ICRF193 200 nM) above 45.8 µM.

The compound `COc1cc2c(c(OC)c1OC)-c1c(cc3c(c1OC)OCO3)C[C@H](C)[C@@](C)(O)C2` [Schisandrol B] returned an IC50 cell viability (ICRF193 0 nM) above 45.8 µM and an IC50 cell viability (ICRF193 200 nM) above 45.8 µM.

Take `CN1[C@@H]2C[C@@H](OC(=O)[C@H](CO)c3ccccc3)C[C@H]1[C@@H]1O[C@@H]12` [Scopolamine hydrobromide]: the IC50 cell viability (ICRF193 0 nM) was above 45.8 µM and the IC50 cell viability (ICRF193 200 nM) is above 45.8 µM.

As to `C[N+]1(C)[C@@H]2C[C@@H](OC(=O)[C@H](CO)c3ccccc3)C[C@H]1[C@@H]1O[C@@H]12` [Scopolamine methylbromide], the IC50 cell viability by setting is: (ICRF193 0 nM) above 45.8 µM; (ICRF193 200 nM) above 45.8 µM.

With `Cc1ncc([N+](=O)[O-])n1CC(C)O` (stereo not drawn) [Secnidazole], the IC50 cell viability was above 45.8 µM (ICRF193 0 nM) and above 45.8 µM (ICRF193 200 nM).

Regarding `C#CCN(C)[C@H](C)Cc1ccccc1` [Selegiline hydrochloride], the IC50 cell viability is above 45.8 µM (ICRF193 0 nM) and above 45.8 µM (ICRF193 200 nM).

`C[Se]CC[C@H](N)C(=O)O` [Selenomethionine] registered an IC50 cell viability (ICRF193 0 nM) above 45.8 µM and an IC50 cell viability (ICRF193 200 nM) above 45.8 µM.

As to `C=C1/C(=C\C=C2/CCC[C@]3(C)[C@@H]([C@H](C)/C=C/C=C/C(O)(CC)CC)CC[C@@H]23)C[C@@H](O)C[C@@H]1O` [Seocalcitol], the IC50 cell viability runs as follows: (ICRF193 0 nM) above 45.8 µM; (ICRF193 200 nM) above 45.8 µM.

For the compound `CC1=C(C)C(=O)C(C(CCCCCC(=O)O)c2ccccc2)=C(C)C1=O` (stereo not drawn) [Seratrodast], the IC50 cell viability runs as follows: (ICRF193 0 nM) above 45.8 µM; (ICRF193 200 nM) above 45.8 µM.

`C=CCN.ClCC1CO1` (stereo not drawn) [Sevelamer Hydrochloride (Technical Grade)]: the IC50 cell viability reads like this: (ICRF193 0 nM) above 45.8 µM; (ICRF193 200 nM) above 45.8 µM.

Turning to `FCOC(C(F)(F)F)C(F)(F)F` [Sevoflurane], the IC50 cell viability is above 45.8 µM (ICRF193 0 nM) and above 45.8 µM (ICRF193 200 nM).

As to `Cc1cc(O)c2c(c1)O[C@@]1(C)CC[C@H]3C(C)(C)CCC[C@]34CO[C@@H]2[C@H]41` [Siccanin], the IC50 cell viability is above 45.8 µM (ICRF193 0 nM) and above 45.8 µM (ICRF193 200 nM).

Turning to `CCCc1nn(C)c2c(=O)[nH]c(-c3cc(S(=O)(=O)N4CCN(C)CC4)ccc3OCC)nc12` [Sildenafil citrate], the IC50 cell viability reads like this: (ICRF193 0 nM) above 45.8 µM; (ICRF193 200 nM) above 45.8 µM.

As to `C[C@H](Cc1cc2c(c(C(N)=O)c1)N(CCCO)CC2)NCCOc1ccccc1OCC(F)(F)F` [Silodosin], the IC50 cell viability is above 45.8 µM (ICRF193 0 nM) and above 45.8 µM (ICRF193 200 nM).

Regarding `COc1ccc2c(O[C@@H]3C[C@H]4C(=O)N[C@]5(C(=O)NS(=O)(=O)C6CC6)C[C@H]5/C=C\CCCCN(C)C(=O)[C@@H]4C3)cc(-c3nc(C(C)C)cs3)nc2c1C` [Simeprevir], the IC50 cell viability (ICRF193 0 nM) is above 45.8 µM and the IC50 cell viability (ICRF193 200 nM) was above 45.8 µM.

For the compound `CCCc1ccc(OCC(=O)N2CCN(C(=O)COc3ccc(CCC)cc3OC)CC2)c(OC)c1` [Simetride], the IC50 cell viability was above 45.8 µM (ICRF193 0 nM) and above 45.8 µM (ICRF193 200 nM).

As for `CSCC[C@H](NC(=O)[C@H](Cc1ccc(OS(=O)(=O)O)cc1)NC(=O)[C@@H](N)CC(=O)O)C(=O)NCC(=O)N[C@@H](Cc1c[nH]c2ccccc12)C(=O)N[C@@H](CCSC)C(=O)N[C@@H](CC(=O)O)C(=O)N[C@@H](Cc1ccccc1)C(N)=O` [Sincalide], the IC50 cell viability by setting is: (ICRF193 0 nM) above 45.8 µM; (ICRF193 200 nM) above 45.8 µM.

For `N[C@@H]1CN(c2c(F)cc3c(=O)c(C(=O)O)cn([C@@H]4C[C@@H]4F)c3c2Cl)CC12CC2` [Sitafloxacin hydrate], the IC50 cell viability is above 45.8 µM (ICRF193 0 nM) and above 45.8 µM (ICRF193 200 nM).

`N[C@@H](CC(=O)N1CCn2c(nnc2C(F)(F)F)C1)Cc1cc(F)c(F)cc1F` [Sitagliptin]: the IC50 cell viability reads like this: (ICRF193 0 nM) above 45.8 µM; (ICRF193 200 nM) above 45.8 µM.

As for `Cc1cc2c(cc1CC(=O)c1sccc1S(=O)(=O)Nc1onc(C)c1Cl)OCO2` [Sitaxentan], the IC50 cell viability reads like this: (ICRF193 0 nM) above 45.8 µM; (ICRF193 200 nM) above 45.8 µM.

In the case of `CC(C)(C)C(=O)Oc1ccc(S(=O)(=O)Nc2ccccc2C(=O)NCC(=O)O)cc1` [Sivelestat sodium hydrate], the IC50 cell viability (ICRF193 0 nM) is above 45.8 µM and the IC50 cell viability (ICRF193 200 nM) is above 45.8 µM.

For `CC(C)COC(=O)OCN1C(=O)CN(CCN2CC(=O)N(COC(=O)OCC(C)C)C(=O)C2)CC1=O` [Sobuzoxane], the IC50 cell viability by setting is: (ICRF193 0 nM) above 45.8 µM; (ICRF193 200 nM) above 45.8 µM.

On to `O=S(=O)(O)CC(S)CS` (stereo not drawn) [Sodium 2,3-dimercaptopropanesulfonate monohydrate], for which the IC50 cell viability by setting is: (ICRF193 0 nM) above 45.8 µM; (ICRF193 200 nM) above 45.8 µM.

In the case of `O=S(=O)(O)CCS` [Sodium 2-mercaptoethanesulfonate], the IC50 cell viability is above 45.8 µM (ICRF193 0 nM) and above 45.8 µM (ICRF193 200 nM).

Turning to `Oc1ccccc1-c1ccccc1` [Sodium 2-phenylphenate tetrahydrate], the IC50 cell viability by setting is: (ICRF193 0 nM) above 45.8 µM; (ICRF193 200 nM) above 45.8 µM.

`Cc1ccc(C(=O)C(=O)O)cc1C` [Sodium 3, 4-dimethylphenyl-glyoxylate] came in with an IC50 cell viability (ICRF193 0 nM) above 45.8 µM and an IC50 cell viability (ICRF193 200 nM) above 45.8 µM.

For `O=C(O)CCCc1ccccc1` [Sodium 4-phenylbutyrate], the IC50 cell viability reads like this: (ICRF193 0 nM) above 45.8 µM; (ICRF193 200 nM) above 45.8 µM.

Regarding `O=C([O-])CC([S-])C(=O)[O-].[Au+].[Na+].[Na+]` (stereo not drawn) [Sodium aurothiomalate(I)], the IC50 cell viability runs as follows: (ICRF193 0 nM) above 45.8 µM; (ICRF193 200 nM) above 45.8 µM.

With `O=C(O)c1cc(=O)c2c(OCC(O)COc3cccc4oc(C(=O)O)cc(=O)c34)cccc2o1` [Sodium cromoglycate], the IC50 cell viability was above 45.8 µM (ICRF193 0 nM) and above 45.8 µM (ICRF193 200 nM).

Turning to `CCCCCCCCCC(=O)NO` [Sodium decanehydroxamate], the IC50 cell viability is above 45.8 µM (ICRF193 0 nM) and above 45.8 µM (ICRF193 200 nM).

As to `C[C@H](CCC(=O)O)[C@H]1CC[C@H]2[C@@H]3CC[C@@H]4C[C@H](O)CC[C@]4(C)[C@H]3C[C@H](O)[C@]12C` [Sodium deoxycholate monohydrate], the IC50 cell viability is, setting by setting: (ICRF193 0 nM) above 45.8 µM; (ICRF193 200 nM) above 45.8 µM.

For the compound `CCCCCCCCCCCCOS(=O)(=O)[O-].[Na+]` [Sodium dodecyl sulfate], the IC50 cell viability is, setting by setting: (ICRF193 0 nM) above 45.8 µM; (ICRF193 200 nM) above 45.8 µM.

Consider `CCCC(=O)Nc1c(I)cc(I)c(CC(CC)C(=O)O)c1I` (stereo not drawn) [Sodium tyropanoate], for which the IC50 cell viability is, setting by setting: (ICRF193 0 nM) above 45.8 µM; (ICRF193 200 nM) above 45.8 µM.

As to `O=c1[nH]c(=O)c2[nH]c(O)nc2[nH]1` [Sodium urate], the IC50 cell viability was above 45.8 µM (ICRF193 0 nM) and above 45.8 µM (ICRF193 200 nM).

Regarding `CC1O[C@H](O[C@]2(O[C@H]3CC[C@@]4(C)C(=CC[C@H]5[C@@H]6C[C@H]7[C@H]([C@H](C)[C@H]8CC[C@H](C)CN87)[C@@]6(C)CC[C@@H]54)C3)C[C@@H](O[C@@H]3OC(CO)[C@@H](O)[C@@H](O)C3O)[C@@H](O)C(CO)O2)C(O)[C@@H](O)[C@H]1O` (stereo partly drawn) [Solanine alpha], the IC50 cell viability reads like this: (ICRF193 0 nM) above 45.8 µM; (ICRF193 200 nM) above 45.8 µM.

For the compound `O=C(O[C@H]1CN2CCC1CC2)N1CCc2ccccc2[C@@H]1c1ccccc1` [Solifenacin (hydrochloride)], the IC50 cell viability was above 45.8 µM (ICRF193 0 nM) and above 45.8 µM (ICRF193 200 nM).

`C/C=C/C=C/C(=O)O` [Sorbic acid]: the IC50 cell viability reads like this: (ICRF193 0 nM) above 45.8 µM; (ICRF193 200 nM) above 45.8 µM.

`CCCCCCCCCCCCCCCC(=O)OC[C@@H](O)[C@H]1OC[C@H](O)[C@H]1O` [Sorbitan monohexadecanoate] displayed an IC50 cell viability (ICRF193 0 nM) above 45.8 µM and an IC50 cell viability (ICRF193 200 nM) above 45.8 µM.

Turning to `CC(C)NCC(O)c1ccc(NS(C)(=O)=O)cc1` (stereo not drawn) [Sotalol], the IC50 cell viability runs as follows: (ICRF193 0 nM) above 45.8 µM; (ICRF193 200 nM) above 45.8 µM.

For `C[C@@H]1CN(c2c(F)c(N)c3c(=O)c(C(=O)O)cn(C4CC4)c3c2F)C[C@H](C)N1` [Sparfloxacin], the IC50 cell viability (ICRF193 0 nM) is above 45.8 µM and the IC50 cell viability (ICRF193 200 nM) was above 45.8 µM.

In the case of `C1CCN2C[C@@H]3C[C@@H](CN4CCCC[C@@H]34)[C@H]2C1` [Sparteine], the IC50 cell viability was above 45.8 µM (ICRF193 0 nM) and above 45.8 µM (ICRF193 200 nM).

Consider `CN[C@@H]1[C@H](O)[C@H](NC)[C@H]2O[C@@]3(O)C(=O)C[C@@H](C)O[C@H]3O[C@@H]2[C@H]1O` [Spectinomycin dihydrochloride], for which the IC50 cell viability by setting is: (ICRF193 0 nM) above 45.8 µM; (ICRF193 200 nM) above 45.8 µM.

In the case of `O=C(CCCN1CCC2(CC1)C(=O)NCN2c1ccccc1)c1ccc(F)cc1` [Spiperone], the IC50 cell viability runs as follows: (ICRF193 0 nM) above 45.8 µM; (ICRF193 200 nM) above 45.8 µM.

Regarding `CO[C@@H]1[C@@H](O[C@@H]2O[C@H](C)[C@@H](O[C@H]3C[C@@](C)(O)[C@@H](O)[C@H](C)O3)[C@H](N(C)C)[C@H]2O)[C@@H](CC=O)C[C@@H](C)[C@@H](O[C@H]2CC[C@H](N(C)C)[C@@H](C)O2)/C=C/C=C/C[C@@H](C)OC(=O)C[C@H]1OC(C)=O` [Spiramycin II], the IC50 cell viability (ICRF193 0 nM) is above 45.8 µM and the IC50 cell viability (ICRF193 200 nM) is above 45.8 µM.

Regarding `CC(C)CCCC(C)CCCC(C)CCCCC(C)CCCC(C)CCCC(C)C` (stereo not drawn) [Squalane], the IC50 cell viability (ICRF193 0 nM) was above 45.8 µM and the IC50 cell viability (ICRF193 200 nM) was above 45.8 µM.

Turning to `CC(C)=CCC/C(C)=C/CC/C(C)=C/CC/C=C(\C)CC/C=C(\C)CCC=C(C)C` [Squalene], the IC50 cell viability reads like this: (ICRF193 0 nM) above 45.8 µM; (ICRF193 200 nM) above 45.8 µM.

Turning to `Cc1cn([C@H]2C=C[C@@H](CO)O2)c(=O)[nH]c1=O` [Stavudine], the IC50 cell viability runs as follows: (ICRF193 0 nM) above 45.8 µM; (ICRF193 200 nM) above 45.8 µM.

As to `CC(C)(C)C(O)/C=C/c1ccc2c(c1)OCO2` (stereo not drawn) [Stiripentol], the IC50 cell viability runs as follows: (ICRF193 0 nM) above 45.8 µM; (ICRF193 200 nM) above 45.8 µM.

Take `CN[C@@H]1[C@H](O[C@H]2[C@H](O[C@H]3[C@H](O)[C@@H](O)[C@H](N=C(N)N)[C@@H](O)[C@@H]3N=C(N)N)O[C@@H](C)[C@]2(O)C=O)O[C@@H](CO)[C@H](O)[C@H]1O` [Streptomycin sulfate]: the IC50 cell viability was above 45.8 µM (ICRF193 0 nM) and above 45.8 µM (ICRF193 200 nM).
